Assay [1] has as its system S. coelicolor M145 and BAP29 mycelia. Description: Sugar uptake assay with N-[14C]acetyl-D-glucosamine into mycelia. It is filed as cell-based, Streptomyces coelicolor. The note with it: parent M145, cultures grown in glycerol and inducer (GlcNAc); 20 μM N-[14C]acetyl-D-glucosamine. An excerpt:
FIG. 8. DasR represses genes the N-acetylglucosamine regulon (A) Effect of deletion of dasR on the uptake of GlcNAc. Left, uptake in glycerol-grown cultures; right, uptake in cultures grown in glycerol and inducer (GlcNAc); note that expression was constitutive in BAP29. (B) Western blot analysis of HPr (top) and IIA^Crr (bottom), showing that inducibility of these PTS proteins is controlled by DasR. (C) Transcriptional analysis of crr (for IIA^Crr), nagE2 (for IIC^GlcNAc), malX2 (for IIB^GlcNAc), nagB and chiF by semi-quantitative RT-PCR. Samples were collected before and 15, 30 and 60 min after the addition of GlcNAc to exponentially growing minimal medium glycerol cultures. 16S rRNA was used as control.
Uptake assays with 20 μM N-[^14C]acetyl-D-glucosamine (6.2 mCi mmol^−1) into mycelia were performed as described (Nothaft et al., 2003).
Since many of the predicted DasR targets were involved in the fate of carbon sources (Table 2), we analyzed the effects of the dasR mutation on sugar import. […] This correlated to constitutive protein levels of the universal PTS phosphotransferases HPr and IIA^Crr (FIG. 8B), and was supported by RT-PCR of the respective genes (malX2, nagE2, crr-ptsI and ptsH; FIG. 8C) that encode the PTS permease complex (IIB^GlcNAc, IIC^GlcNAc, IIA^Crr, EI, HPr).

The next assay has as its target DasR (Streptomyces coelicolor, UniProt Q9K492). Description: EMSA binding interference experiment: ability of compounds to interfere with binding of DasR to the nagB and crr promoters. The note with it: for effect on formation of the complex of DasR with the nagB promoter (EMSA): 10 nM fluorescent probe, 3 μM purified DasR, 500-fold excess of non-specific DNA, 50, 100, 150, and 200 mM compound. The method, then: FIG. 12. […] EMSAs were performed with 10 nM fluorescent probe, 3 μM purified DasR, and 500-fold excess of non-specific DNA.
EMSAs were performed with fluorescent probes (10 nM) with an ALF express sequencer (Filee et al., 2001). Purified DasR (3 μM) and 1000-fold excess of non-specific DNA were used in the reaction mixture. Predicted cis-acting elements were taken from the promoter regions of actII-ORF4 (SCO5085; 5′-[…]-3′ (SEQ ID NO:530)), and redZ (SCO5881; 5′-[…]-3′ (SEQ ID NO:531)). Known cis-acting elements upstream of crr (SCO1390; […]-3′ (SEQ ID NO:532)), and crp (SCO3571; 5′-[…]-3′ (SEQ ID NO:533)) were used as positive and negative controls, respectively. The 16 nt dre sites are underlined.
A pivotal question is what is the effector molecule that modulates DasR? As shown in here, many of the targets for DasR relate to the generation (chitinolytic system), transport (PTS^GlcNAc), and metabolism (glycolysis via fructose 6-P) of N-acetylglucosamine. We therefore looked for the inducer among the intermediate molecules that gravitate around aminosugar metabolism. A binding interference experiment was set up where the ability of compounds to interfere with binding of dasR to the nagB and crr promoters was tested. […] The finding that glucosamine-6-P serves as an effector of DasR is explained by its central position at the metabolic crossroads between (GlcNAc)n extracellular degradation, N-acetylglucosamine transport and intracellular metabolism, lipid and nitrogen metabolism, glycolysis, and peptidoglycan synthesis (FIG. 13).
(Mobility shift assays separate free from complexed probe on a gel.)

Assay [2] deals with S. coelicolor M145 and nagE1, nagE2 mutants. Description: Development on R2YE agar plates with or without N-acetylglucosamine. It is filed as cell-based, Streptomyces coelicolor. The conditions noted are these: N-acetylglucosamine 1% w/v. The procedure:
FIG. 18. N-acetylglucosamine is transported by NagE2 (SCO2907). Mutants deleted for the transport genes nagE1/(SCO2906), nagE2 (SCO2907), or both, were plated on R2YE agar plates with or without N-acetylglucosamine (1% w/v). Other strains on the agar plates are: S.coelicolor M145 (parent of all mutants), the dasR mutant BAP29 and the pts mutants ptsH (BAP1), crr (BAP2), and ptsI (BAP3). For phenotypes of the pts mutants see also FIG. 3A). […] This proves that indeed nagE2 is the transporter of N-caetylglucosamine and is essential for import of the inducer molecule for the DasR control system.
Two possible transporters for N-acetylglucosamine were identified on the S. coelicolor genome, namely the adjacent genes nagE1 (SCO2906) and nagE2 (SCO2907). Mutants were created for both genes by replacing the entire gene by the apramycin resistance cassette aacC4. A double mutant was also produced (BAP6). The method used to do this was by using pWHM3, as described previously (Nothaft et al., 2003). Mutants deleted for the transport genes nagE1 (BAP4), nagE2 (BAP5), or both (BAP6), were plated on R2YE agar plates with or without N-acetylglucosamine (1% w/v). Other strains on the agar plates are: S.coelicolor M145 (parent of all mutants), the dasR mutant BAP29 and the pts mutants ptsH (BAP1), crr (BAP2), and ptsI (BAP3). For phenotypes of the pts mutants see also FIG. 3A). […] This proves that indeed nagE2 is the transporter of N-acetylglucosamine and is essential for import of the inducer molecule for the DasR control system.

Molecules are shown by their SMILES.

Experimental findings from US9834773B2, “Methods and means for metabolic engineering and improved product formation by micro-organisms” (Universiteit Leiden, priority 2006, dated 2017) are described below.

Chain of DasR (Q9K492 whole entry): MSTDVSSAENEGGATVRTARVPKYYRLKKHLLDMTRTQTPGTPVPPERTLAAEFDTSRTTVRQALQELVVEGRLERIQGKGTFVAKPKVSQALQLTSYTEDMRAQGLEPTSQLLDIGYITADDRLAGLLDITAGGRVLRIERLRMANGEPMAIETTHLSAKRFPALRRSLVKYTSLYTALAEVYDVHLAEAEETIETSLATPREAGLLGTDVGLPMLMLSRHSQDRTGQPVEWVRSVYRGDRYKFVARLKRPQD

With `CC(=O)N[C@H]1C(O)O[C@H](CO)[C@@H](O)[C@@H]1O` (some centres unmarked) [N-acetylglucosamine], the “PTS-mediated uptake of GlcNAc” value in assay [1] is given as “induced”. Moreover, the “effect on formation of the complex of DasR with the nagB promoter (EMSA)” value at DasR is reported as “it was the only of the compounds tested that prevented the formation of a complex”; at DasR (listed as GlcNAc), “no effect”. The “effect on formation of the complex of DasR with the crr promoter region (EMSA)” value at DasR (crr promoter, data not shown) is “it was the only of the compounds tested that prevented the formation of a complex”. In addition, the effect on development entry is on record as “no effect on development” in assay [2] (nagE1/nagE2 double mutant (BAP6), R2YE agar); “arrested in the vegetative state” in assay [2] (nagE1 mutant (BAP4), R2YE agar); “no effect on development” in assay [2] (nagE2 mutant (BAP5), R2YE agar); “arrested in the vegetative state” in assay [2] (parental strain S. coelicolor M145, R2YE agar).
